Assay results published in ChEMBL document CHEMBL1133279, “Aminoalkyl adenylate and aminoacyl sulfamate intermediate analogues differing greatly in affinity for their cognate Staphylococcus aureus aminoacyl tRNA synthetases” (Bioorg Med Chem Lett, 2000).

Key:
[1] = system: Histidyl-tRNA synthetase (Staphylococcus aureus); assay: Inhibitory activity against cognate Staphylococcus aureus Histidyl-tRNA synthetase at 300 uM
[2] = system: Threonyl-tRNA synthetase (Staphylococcus aureus); assay: Inhibitory activity against cognate Staphylococcus aureus threonyl tRNA synthetase at 300 uM

inhibition [1] | inhibition [2] | Compound
20% | – | Nc1ncnc2c1ncn2[C@@H]1O[C@H](COP(=O)(O)OC[C@@H](N)Cc2c[nH]cn2)[C@@H](O)[C@H]1O
– | 60% | C[C@@H](O)[C@H](N)COP(=O)(O)OC[C@H]1O[C@@H](n2cnc3c(N)ncnc32)[C@H](O)[C@@H]1O
